Measurements published in patent US10641771B2, “Protein target complex” (HQ Medical Netherlands B.V., priority 2012, dated 2020).

Assays:
4T1-Luc cells = test: Dry ice assay: binding to dead cells or uptake by living cells; type: cell-based, mouse; conditions: dry-ice killed 4T1-Luc cells in the center of the wells, 15 min at 37° C.
Description: 4T1-Luc cells were seeded onto individual wells from a 12-well cell culture plate and allowed to grow to confluence in RPMI media supplemented with 10% fetal bovine serum. 4T1-luc2 mouse breast cancer cells were used as the adherence of these cells to the bottom of the culture well remains strong after dry-ice treatment. To initiate cryo-induced cell death, media was discarded and dry-ice was applied to the bottom center of each individual well for 15 sec. Subsequently, fresh medium with different concentrations of the first compound of the invention were added and cells were incubated at 37° C. for 15 min. After incubation, the media were discarded and the cells were washed twice with serum free medium and 0.5 ml fresh RPMI was added to each well. Cells were then visualized using a Licor Odyssey equipped with 700 and 800 nm diode laser. Luciferin ([…]) was also added to each well and fluorescence and bioluminescence images were acquired using an IVIS Spectrum (fluorescence: excitation filter: 710 nm, emission filter: 820 nm, exposure time: 90 s, bin: 8, f/stop: 2, field of view: 12.9 cm) (bioluminescence: open filter, exposure time: 30 s, bin: 8, f/stop: 1, field of view: 12.9 cm). Some culture wells were also stained for 15 min with Trypan Blue (0.2% in culture medium) to confirm cell death.

intracellular proteins = test: Identification of intracellular proteins that bind HQ5 (lysate incubated with dye); type: binding; conditions: lysate incubated with HQ5 and CW800
Description: FIG. 12 relates to identification of intracellular proteins that bind HQ5. In order to try to identify the protein to which the HQ-dyes bind Lysate is (after pre-treatment) incubated with HQ5 and CW800. Exact protocol and technique not specified. […] A specific HQ5-binding protein has a molecular weight of approx. 40 kD.

injured tissues = conditions: Prajapati et al., Mol Imaging 2009; cited from earlier work
4T1 cells = test: Confocal microscopy of Gambogic acid treated 4T1 cells; type: cell-based, mouse
Source text: Gambogic acid kills cells leading to membrane disruption. […] Annexin-V-FITC specifically binds to phosphatidyl serine (PS) expressed on the outside of the cell membrane of apoptotic and necrotic cells.
Annexin V, however, can next to late apoptotic and necrotic cells also stain cells in an early stage of apoptosis.

Molecule: CC1(C)C(/C=C/C2=C(Oc3ccc(S(=O)(=O)O)cc3)C(=C/C=C3/N(CCCCS(=O)(=O)O)c4ccc(S(=O)(=O)[O-])cc4C3(C)C)/CCC2)=[N+](CCCCCC(=O)O)c2ccc(S(=O)(=O)O)cc21 [CW800]
- binding to dead cells (4T1-Luc cells): specifically and dose-dependently bind to dead cells
- proteins bound, HQ5 compared with CW800 (intracellular proteins): share some but also have different proteins they bind with

Molecule: CC1(C)C(=CC=C2CCCC(C=CC3=[N+](CCCCS(=O)(=O)[O-])c4ccc5ccccc5c4C3(C)C)=C2Cl)N(CCCCS(=O)(=O)[O-])c2ccc3ccccc3c21.[Na+] [IR-820]
- blood pool behaviour (injured tissues): is a blood pool agent that just simply leaks out of blood vessels after disruption of the vessels

B1: Annexin V: binds phosphatidyl serine on the outside of the membrane of apoptotic and necrotic cells (protein, UniProt P08758 2-320, looked up)
Annexin A5: AQVLRGTVTDFPGFDERADAETLRKAMKGLGTDEESILTLLTSRSNAQRQEISAAFKTLFGRDLLDDLKSELTGKFEKLIVALMKPSRLYDAYELKHALKGAGTNEKVLTEIIASRTPEELRAIKQVYEEEYGSSLEDDVVGDTSGYYQRMLVVLLQANRDPDAGIDEAQVEQDAQALFQAGELKWGTDEEKFITIFGTRSVSHLRKVFDKYMTISGFQIEETIDRETSGNLEQLLLAVVKSIRSIPAYLAETLYYAMKGAGTDDHTLIRVMVSRSEIDLFNIRKEFRKNFATSLYSMIKGDTSGDYKKALLLLCGEDD
modifications: FITC label
- number of cells stained (4T1 cells): stains a larger number of cells than both HQ5 and EtD
